Experimental data from US12403107B2, “Lipid pharmaceutical preparation and application thereof” (HUZHOU INNOVATION PHARMACEUTICAL CO., LTD., priority 2019, dated 2025).
Read-outs that look alike come from different tables or passages of the source.

Experiments:
[1] = Blood lidocaine concentration after 2-hour constant-rate intramuscular infusion, literature (Ikeda et al.); assay type: in vivo, Rats; conditions: rat, dose 60 mg/kg, infusion t = 0-2 hours, calculated with elimination half-life = 2 hours, read-out: blood drug concentration of lidocaine
[2] = dose 60 mg/kg, infused into the muscle at a constant rate t = 0-2 hours, cited from earlier work

`CCN(CC)CC(=O)Nc1c(C)cccc1C` [preparation in the reference, lidocaine] showed a concentration at 6 h ([1]; time 6 hour) of 400 ng/mL, a concentration at 8 h ([1]; time 8 hour) of 200 ng/mL and a concentration at 12 h ([1]; time 12 hour) of 100 ng/mL. The concentration at 15 h ([1]; time 15 hour) was 35.3 ng/mL, the concentration at 18 h ([1]; time 18 hour) was 6.25 ng/mL and the concentration at 24 h ([1]; time 24 hour) was 1.6 ng/mL. The concentration at 30 h ([1]; time 30 hour) was 0.2 ng/mL, the concentration at 36 h ([1]; time 36 hour) was 0 ng/mL and the concentration at 42 h ([1]; time 42 hour) was 0 ng/mL. The concentration at 48 h ([1]; time 48 hour) was 0 ng/mL, the concentration at 54 h ([1]; time 54 hour) was 0 ng/mL and the concentration at 60 h ([1]; time 60 hour) was 0 ng/mL. For the same molecule, the concentration at 66 h ([1]; time 66 hour) was 0 ng/mL, the concentration at 72 h ([1]; time 72 hour) was 0 ng/mL and the “blood drug concentration of lidocaine” value ([2]; time 0 hour) was 0 ng/mL. For the same molecule, the “blood drug concentration of lidocaine” value ([2]; time 0.25 hour) was 1900 ng/mL, the “blood drug concentration of lidocaine” value ([2]; time 0.5 hour) was 5800 ng/mL and the “blood drug concentration of lidocaine” value ([2]; time 1 hour) was 8200 ng/mL. The “blood drug concentration of lidocaine” value ([2]; time 2 hour) was 10500 ng/mL and the “blood drug concentration of lidocaine” value ([2]; time 4 hour) was 800 ng/mL.
